Measurements as given in patent US20220016115A1, “USP19 INHIBITORS FOR USE IN THERAPY” (ALMAC DISCOVERY LIMITED, priority 2018, published 2022).

How the values were obtained:
USP19 [1] = target: T1, USP19 (Homo sapiens, UniProt O94966); test: Cell target engagement, neuroblastoma cell line; format: cell-based
T1 sequence (O94966 1-1318): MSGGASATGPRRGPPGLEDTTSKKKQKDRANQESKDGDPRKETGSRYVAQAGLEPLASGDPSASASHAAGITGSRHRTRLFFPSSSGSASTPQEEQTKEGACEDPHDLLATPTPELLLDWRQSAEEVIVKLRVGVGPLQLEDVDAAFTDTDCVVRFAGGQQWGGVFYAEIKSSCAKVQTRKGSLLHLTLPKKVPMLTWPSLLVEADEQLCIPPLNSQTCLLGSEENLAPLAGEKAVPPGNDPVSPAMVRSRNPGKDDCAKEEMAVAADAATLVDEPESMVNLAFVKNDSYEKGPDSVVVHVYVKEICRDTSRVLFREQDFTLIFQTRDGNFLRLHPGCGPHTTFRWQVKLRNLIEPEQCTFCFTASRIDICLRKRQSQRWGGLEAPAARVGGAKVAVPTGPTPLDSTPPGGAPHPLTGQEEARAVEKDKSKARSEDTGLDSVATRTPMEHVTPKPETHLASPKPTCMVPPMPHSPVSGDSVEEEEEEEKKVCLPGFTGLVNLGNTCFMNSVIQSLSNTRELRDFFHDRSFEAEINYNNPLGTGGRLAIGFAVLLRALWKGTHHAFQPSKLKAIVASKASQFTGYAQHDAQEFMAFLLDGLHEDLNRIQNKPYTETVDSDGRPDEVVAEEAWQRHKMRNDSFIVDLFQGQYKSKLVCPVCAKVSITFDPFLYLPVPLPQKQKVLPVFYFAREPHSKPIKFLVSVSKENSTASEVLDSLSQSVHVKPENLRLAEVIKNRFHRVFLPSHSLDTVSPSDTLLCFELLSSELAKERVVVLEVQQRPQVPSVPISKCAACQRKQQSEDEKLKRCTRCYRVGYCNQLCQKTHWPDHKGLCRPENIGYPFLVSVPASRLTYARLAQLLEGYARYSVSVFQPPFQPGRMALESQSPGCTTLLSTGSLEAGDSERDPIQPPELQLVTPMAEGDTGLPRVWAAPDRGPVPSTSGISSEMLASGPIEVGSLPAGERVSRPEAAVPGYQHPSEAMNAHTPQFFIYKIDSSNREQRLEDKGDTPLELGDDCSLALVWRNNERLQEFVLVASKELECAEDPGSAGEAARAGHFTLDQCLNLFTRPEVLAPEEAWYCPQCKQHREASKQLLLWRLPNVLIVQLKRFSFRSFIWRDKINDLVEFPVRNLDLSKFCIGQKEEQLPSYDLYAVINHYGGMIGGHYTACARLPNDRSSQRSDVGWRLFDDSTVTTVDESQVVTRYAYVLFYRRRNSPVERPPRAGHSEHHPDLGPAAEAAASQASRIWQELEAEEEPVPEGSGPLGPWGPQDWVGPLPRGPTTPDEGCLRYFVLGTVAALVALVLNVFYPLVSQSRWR
Method: (§1) Cells from a breast cancer cell line, a neuroblastoma cell line and a mouse skeletal muscle cell line were treated with a USP19 inhibitor compound (ADC-141, corresponding to Example 212 provided herein) for 2 hrs, lysed (lysis buffer: 50 mM Tris pH 7.4; 150 mM NaCl; 5 mM MgCl2; 0.5 mM EDTA; 0.5% NP40; 10% Glycerol; 2 mM DTT) and Ubiquitin-propargylamine (Ub-PA; UbiQ) or Ubiquitin-vinyl methyl ester (Ub-VME; Almac Sciences Scotland Limited) was then added. Samples were analysed by western blotting probing for USP19 (EC50 determined by densitometry).

[2] = system: diet-induced obese (DIO) mouse; test: Oral glucose tolerance test (OGTT) in diet-induced obese mice; format: in vivo
Method: To assess obesity and insulin resistance, a diet-induced obesity mouse model was used.
Male C57BL6/J mice were continuously provided with high-fat diet (D12451, 45% kcal as fat; Research Diets, New Jersey, USA) and filtered tap water ad libitum for the duration of the study. From day 0, mice were administered vehicle i.p. BID, USP19 inhibitor (ADC-141) i.p. BID at 5 mg/kg or 25 mg/kg, or positive control liraglutide 0.1 mg/kg s.c. BID. Mice were allocated to treatment groups to balance the groups on the basis of body weight, food and water intake prior to the start of treatment.
Body weight was measured daily. On Day 13, body composition was assessed by DEXA. On Day 15, fasting glucose and insulin levels were measured before and during an oral glucose tolerance test (OGTT) to assess improvements in glucose control. The OGTT was performed following an overnight fast. […] An OGTT was performed the following morning (approx. 16h post fast). Mice were dosed with vehicle or test compound (starting at 08.45) to a timed schedule 30 minutes prior to the administration of the glucose challenge (2.0 g/kg po). Blood samples were taken immediately prior to dosing (B1), immediately prior to glucose administration (B2) and 15, 30, 60 and 120 minutes after glucose administration.

USP19 [3] = target: T1, USP19; test: Cell target engagement, breast cancer cell line; format: cell-based
Method: as §1

[4] = 2 hrs treatment, Ub-PA or Ub-VME probe, western blot

In the case of `C[C@H](CC1CCCCC1)C(=O)N1CC[C@@](O)(Cn2cc(C(=O)N3CCNCC3)c(-c3ccccc3)cc2=O)C2(CCCC2)C1` [ADC-141, 1-(((S)-7-((R)-3-Cyclohexyl-2-methylpropanoyl)-10-hydroxy-7-azaspiro[4.5]decan-10-yl)methyl)-4-phenyl-5-(piperazine-1-carbonyl)pyridin-2(1H)-one], the cell permeability (USP19 [1]) is reported as “good cell permeability”, the “EC50 (USP19 target engagement, densitometry)” value (USP19 [1]; [4]) is reported as “low nanomolar” and the “insulin AUC” value ([2]; 0-60 and 0-120 minutes, 25 mg/kg ip bid) is reported as “reduced”. The “glucose AUCB2” value ([2]; 0-120 minutes only, 25 mg/kg ip bid, vs vehicle) was “significantly reduced”, the “glucose AUC” value ([2]; 25 mg/kg ip bid, vs vehicle) was “significantly reduced” and the plasma insulin ([2]; 30, 60 and 120 minutes post-glucose, 25 mg/kg ip bid) was “reduced”. For the same compound, the plasma glucose ([2]; all time points pre- and post-glucose, 25 mg/kg ip bid, vs vehicle) was “significantly reduced”, the fasting plasma glucose ([2]; following 2 weeks of treatment) was “effective at decreasing” and the cell permeability (USP19 [3]) was “good cell permeability”. The “EC50 (USP19 target engagement, densitometry)” value (USP19 [3]; [4]) was “low nanomolar”.
